Assay results reported in patent US9487561B2, “Biologically active complex and its preparation” (HAMLET PHARMA AB, priority 2010, dated 2016).
“Also recorded” adds a separate entry of the source.

Tests used:
[1] = system: IL-6, IL-8, TNFα in healthy, differentiated cells; assay: innate immune response (qRT-PCR, cytokine quantification); format: cell-based, human
Protocol: RNA was prepared with the RNeasy Mini Kit (QIAGEN, Hilden, Germany) and treated with DNAse I (QIAGEN). cDNA was synthesized using the Superscript III first strand RT-PCR system (Invitrogen). PCR of spliced and un-spliced XBP1 was as described (Yoshida et al., 2001, Cell 107: 881-891). Real-time PCR was performed on a Rotorgene 2000 instrument (Corbett Life Science, Sydney, Australia) using TaqMan Gene Expression Assays (Applied BioSystems) CHOP/DDIT3 (Hs01090850), IL6 (Hs00985639), IL8 (Hs00174103) and TNFα (Hs00174128). GAPDH (Hs99999905_m1) was used for normalization.
Equal volumes of lysates were separated by SDS-PAGE on 4-12% Bis-Tris gels (Invitrogen) and blotted onto PVDF membranes. For other Western blots, 200,000 cells were allowed to adhere overnight in a 6-well plate. After HAMLET treatment the cells were washed with PBS and lysed in M-PER lysis buffer (Pierce) containing Complete protease inhibitor cocktail and PhosSTOP phosphatase inhibitor cocktail (both from Roche). The detached cells were collected by centrifugation. The lysates were cleared by centrifugation and protein concentrations were measured using the DC Protein Assay (Bio-Rad Laboratories, Hercules, Calif.). Equal amounts of protein were separated by SDS-PAGE on 4-12% Bis-Tris gels (Invitrogen) and blotted onto PVDF membranes (GE Healthcare). Membranes were saturated with BSA (GAPDH) or nonfat dry milk (phospho-p38, p38, phospho-ERK1/2, ERK1/2) and incubated with anti-p38, anti-phospho-p38, anti-ERK1/2, anti-phospho-(Thr202/Tyr204)-p44/42 (all 1:500-1000, Cell Signaling Technology), anti-ATF6 (1:1000, IMG-273, Imgenex), anti-phospho-eIF2α (Ser51), (1:500, Cell Signaling Technology) or anti-GAPDH (1:3000-5000, Novus Biologicals) antibodies followed by horseradish peroxidase-conjugated anti-rabbit (1:1000, DakoCytomation, Glostrup, Denmark) or anti-mouse (1:40000-50000, Novus Biologicals) antibodies for staining. Bound antibodies were detected with ECL Plus Western Blotting Reagent (GE Healthcare, Little Chalfont, UK) and GelDoc equipment (Bio-Rad Laboratories, Hercules, Calif.). If required, membranes were stripped with Restore Western Blot Stripping Buffer (Pierce, Rockford, Ill.), blocked and reprobed with new antibodies. MAP kinase phosphorylation was analyzed on a Human Phospho-MAPK array (Proteome Profiler Array, R&D Systems) as per the manufacturer's instruction. Band and spot intensities were quantified using ImageJ (Abramoff et al., July 2004, Biophotonics International). Cytokine quantification (IL6, IL8, TNFα) was performed on an […] 1000 immunoassay system (Siemens Diagnostics).
To examine the molecular basis of the difference in HAMLET susceptibility between carcinoma cells and healthy, differentiated cells, transcriptional profiles were compared.
To further examine if the innate immune response in healthy, differentiated cells requires functional ion channels, the expression of IL-6, IL-8 and TNFα mRNA was quantified in cells pretreated with amiloride and BaCl2, using qRT-PCR.

[2] = system: A549 lung carcinoma cells; assay: cell death assay (trypan blue exclusion, ATP levels); format: cell-based, human; settings: for effect of channel inhibitor on HAMLET-induced cell death: 30 minutes pretreatment, HAMLET three hours; for tumoricidal effect (trypan blue exclusion, ATP): Example 2, 3 hours, molar concentrations based on stoichiometry in HAMLET, dose response
Protocol: Cells were detached from cell culture flasks with versen (0.2 g EDTA in 200 ml H2O and 800 ml PBS), washed with PBS and resuspended in serum-free RPMI-1640. HAMLET dissolved in PBS was incubated with cells (0.5×10^6/ml for A549, A498 and HeLa cells; 1×10^6/ml for Jurkat) at 37° C. FCS was added after 1 hour. Cell death was quantified by trypan blue exclusion (Chroma Gesellschaft Schmid & Co) or by measuring ATP levels (ATPlite Kit, PerkinElmer, Infinite 200, Tecan). Light images were captured using the HOLOMONITOR™ M2 digital holographic microscope (Phase Holographic Imaging AB, Lund, Sweden).
For studies with inhibitors, cells were pretreated for 30 minutes. Inhibitors used were Gadolinium chloride (GdCl3, 100 μM), Barium chloride (BaCl2, 1 mM), Ruthenium red (30 μM), tetrandrine (10 μM) and amiloride (1 mM), all from Sigma Aldrich. For p38 inhibition, SB202190 (20 μM, Sigma Aldrich) or BIRB796 (10 μM, Axon Medchem) dissolved in DMSO was used. The wells were washed twice with PBS and new medium with inhibitor was added. For RNA interference, FlexiTube siRNA Premixes against MAPK11 (SI00606053), MAPK14 (SI00300769) and All Star Negative Control siRNA (SI03650318) from Qiagen was used. A549 forward was transfected using 25 nM final siRNA concentration in 24-well plate. After 48 hours, knockdown was examined by Western blot (anti-p38, 1:1000, Cell Signaling) and RT-PCR (MAPK14, QT00079345, QIAGEN).
To examine if functional ion channels are important for the tumoricidal activity of HAMLET, A549 lung carcinoma cells in suspension were pretreated with the channel inhibitors for 30 minutes and exposed to increasing concentrations of HAMLET for three hours.
A549 cells were seeded to a density of 0.8-1.0×10^6 cells/well in RPMI without FCS. Different volumes of HAMLET/oleate and oleic acid solutions were added. The cells were incubated for 1 hour at 37° C. 5% CO2 for 1 hour before 50 μl of FCS (5% final concentration) were added to the wells. The cells were then further incubated for additional 2 hours before the viability were determined by trypan blue exclusion and ATP measurements.

For `[Ba+2].[Cl-].[Cl-]` [BaCl2, barium chloride], the “effect of inhibitor on HAMLET induced TNFα expression” value [1] was “caused a reduction”, the “effect of inhibitor on IL-6 and IL-8 response to HAMLET” value [1] was “did not inhibit” and the “effect of channel inhibitor on HAMLET-induced cell death” value [2] was “markedly reduced cell death”.

`NC(N)=NC(=O)c1nc(Cl)c(N)nc1N` [amiloride, 3,5-diamino-6-chloro-N-(diaminomethylene)pyrazine-2-carboxamide] was tested, and the “effect of inhibitor on HAMLET-induced IL-6 mRNA” value [1] was “abolished” and the “effect of channel inhibitor on HAMLET-induced cell death” value [2] was “markedly reduced cell death”.

In the case of `CCCCCCCC/C=C\CCCCCCCC(=O)[O-].[Na+]` [oleate, sodium oleate], the “tumoricidal effect (trypan blue exclusion, ATP)” value [2] is reported as “tumoricidal; also recorded: stronger than that of oleic acid”, the “concentration at which tumor cells were killed, relative to concentration in HAMLET” value ([2]; Example 2, dose response) is reported as “three to five times higher than the concentration in HAMLET” and the “tumoricidal effect at concentrations corresponding to 15× that of HAMLET (35 μM)” value ([2]; FIG. 7F, cell line not stated) is reported as “not tumoricidal”.

B1: HAMLET (protein, UniProt P00709 20-142, looked up)
Alpha-lactalbumin: KQFTKCELSQLLKDIDGYGGIALPELICTMFHTSGYDTQAIVENNESTEYGLFQISNKLWCKSSQVPQSRNICDISCDKFLDDDITDDIMCAKKILDIKGIDYWLAHKALCTEKLEQWLCEKL
modifications: oleic acid complex
In the case of B1, the “secreted protein levels of IL-6, IL-8, and TNFα” value [1] is reported as “clear increase in secreted protein levels”, the “increase in IL-6 mRNA” value ([1]; HAMLET 21 μM, 1 hour, qRT-PCR) is reported as 30 fold and the “tumoricidal effect (trypan blue exclusion, ATP)” value [2] is reported as “kills tumor cells more efficiently than protein free oleate or oleic acid”. For the same molecule, the “lethal response (trypan blue exclusion, ATP levels)” value ([2]; increasing concentrations, three hours, no inhibitors) was “rapid, dose-dependent lethal response”.
